Source: patent US20060069132A1, “Azolecarboxamide herbicides” (priority 2004, published 2006)

Legend:
corn = assay: Test B pre-/postemergence herbicide test; format: in vivo, Zea mays; details: for Plant response rating (0 to 100 scale), Corn: 0 is no effect, preemergence; for Corn plant response rating: postemergence
Method in brief: (§1)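 Visual rating, 0 (no effect) to 100 (complete control), versus untreated controls after 13–15 d in greenhouse. Pre- and postemergence applications (postemergence plants 2–18 cm, 1–4 leaves); flooded paddy arm at 2-leaf stage. Compounds in non-phytotoxic solvent plus surfactant.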

rice = assay: Test B flooded paddy test; format: in vivo, Oryza sativa; details: 1000 g ai/ha, scale 0 to 100 (0 no effect, 100 complete control)
Method in brief: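 Read-out: visual comparison with controls, scored 0 to 100, where 100 means complete control and 0 no effect. Formulated chemicals were applied postemergence to plants 2–18 cm tall (1- to 4-leaf), or to flooded-paddy plants at the 2-leaf stage, then held 13 to 15 days under glass.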

lambsquarters = assay: Test B pre-/postemergence herbicide test; format: in vivo, Chenopodium album; details: for Lambsquarters plant response rating: scale 0 (no effect) to 100 (complete control)
Method in brief: as §1

barnyardgrass [1] = assay: Test B flooded paddy test; format: in vivo, Echinochloa crus-galli; details: 1000 g ai/ha, scale 0 to 100 (0 no effect, 100 complete control)
Method in brief: (§2)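 Visual control ratings, 0–100 versus untreated controls, taken after 13 to 15 days in the greenhouse. Blackgrass received a postemergence spray at the 1- to 4-leaf stage (2–18 cm); ducksalad, umbrella sedge and barnyardgrass were flooded-paddy treated at 2 leaves.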

velvetleaf = assay: Test B pre-/postemergence herbicide test; format: in vivo, Abutilon theophrasti; details: for Plant response rating (0 to 100 scale), Velvetleaf: 0 is no effect, 100 is complete control, preemergence; for Velvetleaf plant response rating: scale 0 (no effect) to 100 (complete control)
Method in brief: as §1

large crabgrass = assay: Test B pre-/postemergence herbicide test; format: in vivo, Digitaria sanguinalis; details: for Plant response rating (0 to 100 scale), Crabgrass, Large: 0 is no effect, preemergence; for Crabgrass, Large plant response rating: postemergence
Method in brief: as §1

cocklebur = assay: Test B pre-/postemergence herbicide test; format: in vivo, Xanthium strumarium; details: for Plant response rating (0 to 100 scale), Cocklebur: 0 is no effect, preemergence; for Cocklebur plant response rating: postemergence
Method in brief: (§3)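 Response was scored visually 13 to 15 days after treatment against untreated greenhouse controls, 0 meaning no effect and 100 complete control. Formulations (solvent mixture plus surfactant) went onto soil after planting, onto foliage of 1- to 4-leaf plants, and onto 2-leaf plants in a flooded paddy set including rice and barnyardgrass.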

blackgrass = assay: Test B postemergence herbicide test; format: in vivo, Alopecurus myosuroides; details: postemergence
Method in brief: as §2

giant foxtail = assay: Test B pre-/postemergence herbicide test; format: in vivo, Setaria faberi; details: for Plant response rating (0 to 100 scale), Foxtail, Giant: 0 is no effect, preemergence; for Foxtail, Giant plant response rating: postemergence
Method in brief: as §1

pigweed = assay: Test B pre-/postemergence herbicide test; format: in vivo, Amaranthus retroflexus; details: for Plant response rating (0 to 100 scale), Pigweed: 0 is no effect, 100 is complete control, preemergence; for Pigweed plant response rating: scale 0 (no effect) to 100 (complete control)
Method in brief: as §1

Surinam grass = assay: Test B pre-/postemergence herbicide test; format: in vivo, Urochloa decumbens; details: for Plant response rating (0 to 100 scale), Surinam Grass: 0 is no effect, 100 is complete control, preemergence; for Surinam Grass plant response rating: scale 0 (no effect) to 100 (complete control)
Method in brief: as §1

ducksalad = assay: Test B flooded paddy test; format: in vivo, Heteranthera limosa; details: 1000 g ai/ha, scale 0 to 100 (0 no effect, 100 complete control)
Method in brief: as §2

morningglory = assay: Test B pre-/postemergence herbicide test; format: in vivo, Ipomoea coccinea; details: for Plant response rating (0 to 100 scale), Morningglory: 0 is no effect, 100 is complete control, preemergence; for Morningglory plant response rating: scale 0 (no effect) to 100 (complete control)
Method in brief: as §3

[2] = test system: small flower umbrella sedge; assay: Test B flooded paddy test; format: in vivo, Cyperus difformis; details: 1000 g ai/ha, scale 0 to 100 (0 no effect, 100 complete control)
Method in brief: as §2

wheat = assay: Test B postemergence herbicide test; format: in vivo, Triticum aestivum; parameters: key to Wheat plant response rating: 0 = no effect, 100 = complete control
Method in brief: (§4)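 Visual ratings, 0 (no effect) to 100 (complete control), made versus controls after 13–15 d greenhouse. Paddy plants treated at 2-leaf stage; postemergence plants at 1- to 4-leaf stage, 2–18 cm tall.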

barnyardgrass [3] = assay: Test B pre-/postemergence herbicide test; format: in vivo, Echinochloa crus-galli; details: for Plant response rating (0 to 100 scale), Barnyardgrass: 0 is no effect, preemergence; for Barnyardgrass plant response rating: postemergence
Method in brief: as §3

wild oat = assay: Test B postemergence herbicide test; format: in vivo, Avena fatua; details: scale 0 (no effect) to 100 (complete control)
Method in brief: as §4

[4] = 125 g ai/ha, 100 is complete control
[5] = 125 g ai/ha, visual rating, scale 0 (no effect) to 100 (complete control)
[6] = 500 g ai/ha, scale 0 to 100, 0 is no effect, 100 is complete control
[7] = 125 g ai/ha, visual rating, postemergence
[8] = 125 g ai/ha, visual rating, scale 0 (no effect) to 100 (complete control), postemergence
[9] = 500 g ai/ha, scale 0 to 100, 0 no effect, 100 complete control, preemergence

Question: How did the “Plant response rating (0 to 100 scale), Corn” value (corn; [4]) turn out when CCc1nn(C(C)(C)C)nc1C(=O)Nc1cccc(C(=O)N2CC=CC2)c1 [Compound 366] was run?
Answer: 40

Question: What about the “Corn plant response rating” value (corn; [5]) of the same compound?
Answer: 10

Question: What about the “Corn plant response rating” value (corn; [6]) of the same compound?
Answer: 20

Question: What about the “Rice plant response rating” value (rice) of the same compound?
Answer: 70

Question: What about the “Lambsquarters plant response rating” value (lambsquarters; [7]) of the same compound?
Answer: 80

Question: What about the “Barnyardgrass plant response rating” value (barnyardgrass [1]) of the same compound?
Answer: 80

Question: And the “Plant response rating (0 to 100 scale), Velvetleaf” value (velvetleaf; 125 g ai/ha)?
Answer: 0

Question: What about the “Velvetleaf plant response rating” value (velvetleaf; [7]) of the same compound?
Answer: 10

Question: What about the “Plant response rating (0 to 100 scale), Crabgrass, Large” value (large crabgrass; [4]) of the same compound?
Answer: 40

Question: And the “Crabgrass, Large plant response rating” value (large crabgrass; [5])?
Answer: 10

Question: And the “Crabgrass, Large plant response rating” value (large crabgrass; [6])?
Answer: 20

Question: What about the “Plant response rating (0 to 100 scale), Cocklebur” value (cocklebur; [4]) of the same compound?
Answer: 0

Question: What about the “Cocklebur plant response rating” value (cocklebur; [5]) of the same compound?
Answer: 30

Question: What about the “Cocklebur plant response rating” value (cocklebur; [6]) of the same compound?
Answer: 50

Question: And the “Blackgrass plant response rating” value (blackgrass; [5])?
Answer: 40

Question: And the “Blackgrass plant response rating” value (blackgrass; [6])?
Answer: 50

Question: What about the “Plant response rating (0 to 100 scale), Foxtail, Giant” value (giant foxtail; [4]) of the same compound?
Answer: 50

Question: What about the “Foxtail, Giant plant response rating” value (giant foxtail; [5]) of the same compound?
Answer: 20

Question: And the “Foxtail, Giant plant response rating” value (giant foxtail; [6])?
Answer: 40

Question: And the “Plant response rating (0 to 100 scale), Pigweed” value (pigweed; 125 g ai/ha)?
Answer: 70

Question: And the “Pigweed plant response rating” value (pigweed; [7])?
Answer: 50

Question: And the “Plant response rating (0 to 100 scale), Surinam Grass” value (Surinam grass; 125 g ai/ha)?
Answer: 30

Question: What about the “Surinam Grass plant response rating” value (Surinam grass; [7]) of the same compound?
Answer: 10

Question: What about the “Ducksalad plant response rating” value (ducksalad) of the same compound?
Answer: 100

Question: And the “Plant response rating (0 to 100 scale), Morningglory” value (morningglory; 125 g ai/ha)?
Answer: 30

Question: What about the “Sedge, Umbrella plant response rating” value [2] of the same compound?
Answer: 90

Question: What about the “Wheat plant response rating” value (wheat; [8]) of the same compound?
Answer: 20

Question: What about the “Wheat plant response rating” value (wheat; [9]) of the same compound?
Answer: 90

Question: What about the “Plant response rating (0 to 100 scale), Barnyardgrass” value (barnyardgrass [3]; [4]) of the same compound?
Answer: 70

Question: And the “Barnyardgrass plant response rating” value (barnyardgrass [3]; [5])?
Answer: 10

Question: What about the “Barnyardgrass plant response rating” value (barnyardgrass [3]; [6]) of the same compound?
Answer: 10

Question: What about the “Oat, Wild plant response rating” value (wild oat; [7]) of the same compound?
Answer: 40

Question: CCNC(=O)c1ccc(F)c(NC(=O)c2nn(C(C)(C)CC)nc2CC)c1 [Compound 370] was tested. Which “Plant response rating (0 to 100 scale), Corn” value (corn; [4]) did it give?
Answer: 0

Question: And the “Corn plant response rating” value (corn; [5])?
Answer: 10

Question: What about the “Corn plant response rating” value (corn; [6]) of the same compound?
Answer: 10

Question: And the “Rice plant response rating” value (rice)?
Answer: 30

Question: And the “Plant response rating (0 to 100 scale), Lambsquarters” value (lambsquarters; 125 g ai/ha, 0 is no effect, 100 is complete control, preemergence)?
Answer: 80

Question: And the “Lambsquarters plant response rating” value (lambsquarters; [7])?
Answer: 0

Question: And the “Lambsquarters plant response rating” value (lambsquarters; Postemergence, 500 g ai/ha)?
Answer: 20

Question: And the “Barnyardgrass plant response rating” value (barnyardgrass [1])?
Answer: 0

Question: And the “Plant response rating (0 to 100 scale), Velvetleaf” value (velvetleaf; 125 g ai/ha)?
Answer: 0

Question: What about the “Velvetleaf plant response rating” value (velvetleaf; [7]) of the same compound?
Answer: 10

Question: What about the “Velvetleaf plant response rating” value (velvetleaf; Postemergence, 500 g ai/ha) of the same compound?
Answer: 20

Question: What about the “Plant response rating (0 to 100 scale), Crabgrass, Large” value (large crabgrass; [4]) of the same compound?
Answer: 10

Question: And the “Crabgrass, Large plant response rating” value (large crabgrass; [5])?
Answer: 10

Question: And the “Crabgrass, Large plant response rating” value (large crabgrass; [6])?
Answer: 10

Question: And the “Plant response rating (0 to 100 scale), Cocklebur” value (cocklebur; [4])?
Answer: 0

Question: And the “Cocklebur plant response rating” value (cocklebur; [5])?
Answer: 0

Question: And the “Cocklebur plant response rating” value (cocklebur; [6])?
Answer: 0

Question: And the “Blackgrass plant response rating” value (blackgrass; [5])?
Answer: 0

Question: What about the “Blackgrass plant response rating” value (blackgrass; [6]) of the same compound?
Answer: 10

Question: What about the “Plant response rating (0 to 100 scale), Foxtail, Giant” value (giant foxtail; [4]) of the same compound?
Answer: 0

Question: And the “Foxtail, Giant plant response rating” value (giant foxtail; [5])?
Answer: 0

Question: What about the “Foxtail, Giant plant response rating” value (giant foxtail; [6]) of the same compound?
Answer: 20

Question: And the “Plant response rating (0 to 100 scale), Pigweed” value (pigweed; 125 g ai/ha)?
Answer: 40

Question: What about the “Pigweed plant response rating” value (pigweed; [7]) of the same compound?
Answer: 0

Question: And the “Pigweed plant response rating” value (pigweed; Postemergence, 500 g ai/ha)?
Answer: 30

Question: And the “Plant response rating (0 to 100 scale), Surinam Grass” value (Surinam grass; 125 g ai/ha)?
Answer: 0

Question: And the “Surinam Grass plant response rating” value (Surinam grass; [7])?
Answer: 10

Question: And the “Surinam Grass plant response rating” value (Surinam grass; Postemergence, 500 g ai/ha)?
Answer: 10

Question: What about the “Ducksalad plant response rating” value (ducksalad) of the same compound?
Answer: 60

Question: And the “Plant response rating (0 to 100 scale), Morningglory” value (morningglory; 125 g ai/ha)?
Answer: 0

Question: And the “Morningglory plant response rating” value (morningglory; [7])?
Answer: 10

Question: What about the “Morningglory plant response rating” value (morningglory; Postemergence, 500 g ai/ha) of the same compound?
Answer: 20

Question: And the “Sedge, Umbrella plant response rating” value [2]?
Answer: 40

Question: And the “Wheat plant response rating” value (wheat; [8])?
Answer: 0

Question: What about the “Wheat plant response rating” value (wheat; [9]) of the same compound?
Answer: 0

Question: And the “Wheat plant response rating” value (wheat; Postemergence, 500 g ai/ha, scale 0 (no effect) to 100 (complete control))?
Answer: 0

Question: What about the “Plant response rating (0 to 100 scale), Barnyardgrass” value (barnyardgrass [3]; [4]) of the same compound?
Answer: 10

Question: And the “Barnyardgrass plant response rating” value (barnyardgrass [3]; [5])?
Answer: 0

Question: And the “Barnyardgrass plant response rating” value (barnyardgrass [3]; [6])?
Answer: 0

Question: What about the “Oat, Wild plant response rating” value (wild oat; [7]) of the same compound?
Answer: 0

Question: What about the “Oat, Wild plant response rating” value (wild oat; Postemergence, 500 g ai/ha) of the same compound?
Answer: 0
